Among the data in patent US8895561B2, “Compounds and methods for treating candidiasis and aspergillus infections” (Cellceutix Corporation, priority 2012, dated 2014) are EC50, IC50 and MIC values, retold here.

In general, EC50 refers to the concentration that produces a half-maximal response. Low readings indicate an effect from little substance, high ones a need for much substance. In general, IC50 refers to the concentration that inhibits the measured activity by half. The term MIC denotes the least concentration at which growth counts as inhibited.

Converted amounts (≈) assume the structure as drawn. Like-named read-outs stand apart in the source and are kept apart here. Some results are limits rather than exact numbers.

What all share (assay type): cell-based
One test deals with S. aureus 27660. The test can be described thus: Bacterial MIC, broth microdilution, CLSI. The following applies: Staphylococcus aureus; S. aureus 27660. The procedure, abridged: (§1)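 MICs by broth microdilution under standard CLSI conditions against E. coli 25922, S. aureus 27660, E. faecalis 29212, P. aeruginosa 10145 and K. pneumoniae 13883.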
Background: In broth dilution the organism is exposed to a series of concentrations in liquid medium.

For the next test, the system named is K. pneumoniae 13883. The test can be described thus: Bacterial MIC, broth microdilution, CLSI. Conditions: Klebsiella pneumoniae. A digest of the protocol: as §1
Another test relates to E. faecalis 29212. The test can be described thus: Bacterial MIC, broth microdilution, CLSI. Conditions: Enterococcus faecalis; E. faecalis 29212. A digest of the protocol:
as §1

In a further test the test system is E. coli 25922. The test can be described thus: Bacterial MIC, broth microdilution, CLSI. The following applies: Escherichia coli; E. coli 25922. The procedure, abridged:
as §1

For a further test, the system named is P. aeruginosa 10145. The test can be described thus: Bacterial MIC, broth microdilution, CLSI. The following applies: Pseudomonas aeruginosa; P. aeruginosa 10145. The procedure, abridged: as §1
The subject of test [1] is human oral keratinocyte cell line, OKF6/TERT. The test can be described thus: Cytotoxicity, MTS viability assay. As for the experimental part:
Candida IC50s were determined by OD600 and fluorescence from vegetative cells and by MTS viability assay in the hyphal state. MICs were determined using a broth microdilution assay under standard CLSI conditions Bacteria strains: E. coli 25922 (EC), S. aureus 27660 (SA), E. faecalis 29212 (EF), P. aeruginosa 10145 (PA), and K. pneumoniae 13883 (KP). Cytotoxicity (EC50) was determined against mouse 3T3 fibroblasts, human transformed liver HepG2 cells, and human oral keratinocyte cell line, OKF6/TERT using an MTS viability assay. Candida IC50s<10 μg/mL, MICs<5 μg/mL and cytotoxicity EC50s>100 μM are indicated in green. MICs>5 μg/mL and cytotoxicity EC50s<100 μM are indicated in red.
(§2) CLSI conditions Bacteria strains: clinical isolates; yeast strains: C. dubliniensis (NCPF3949), C. glabrata (ATCC 90030), C. krusei (ATCC 6258), C. parapsilosis (ATCC 22019), and C. tropicalis (ATCC 750). Cytotoxicity (EC50) was determined against mouse 3T3 fibroblasts, human transformed liver HepG2 cells, and human oral keratinocyte cell line, OKF6/TERT using an MTS viability assay.
In general terms: Tetrazolium dyes change colour on reduction, which living cells bring about.

The subject of test [2] is C. albicans GDH2346 hyphal biofilm. The test can be described thus: Candida IC50 in the hyphal state / hyphal biofilm, MTS viability assay. The following applies: Candida albicans. The protocol:
Candida IC50s were determined by OD600 and fluorescence from vegetative cells and by MTS viability assay in the hyphal state. MICs were determined using a broth microdilution assay under standard CLSI conditions Bacteria strains: E. coli 25922 (EC), S. aureus 27660 (SA), E. faecalis 29212 (EF), P. aeruginosa 10145 (PA), and K. pneumoniae 13883 (KP). Cytotoxicity (EC50) was determined against mouse 3T3 fibroblasts, human transformed liver HepG2 cells, and human oral keratinocyte cell line, OKF6/TERT using an MTS viability assay. Candida IC50s<10 μg/mL, MICs<5 μg/mL and cytotoxicity EC50s>100 μM are indicated in green. MICs>5 μg/mL and cytotoxicity EC50s<100 μM are indicated in red. To form the biofilm, yeast were grown in RPMI/MOPS, 0.4% sucrose pH7.4 media supplemented with 10% FBS in tissue culture-treated flat bottom 96 well plates for 48 hours. The filamentous yeast cultures were then vigorously washed to remove any non-filamentous, non-attached yeast. The remaining attached filamentous biofilm yeast were incubated in saline containing serially diluted compounds for 24 hours. The cultures were aspirated to remove compound, rinsed and overlayed with RPMI/MOPS, 0.4% sucrose pH7.4 media. Biofilm viability was measured using a cell proliferation assay (CellTiter96 Aqueous Kit from Promega) and IC50s were determined using Prism GraphPad software (nonlinear fit, Table 3).

The subject of test [3] is human transformed liver HepG2 cells. The test can be described thus: Cytotoxicity, MTS viability assay. The following applies: Homo sapiens, HepG2; cytotoxicity. A digest of the protocol: (§3)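 Cytotoxicity in mouse 3T3 fibroblasts and human HepG2 liver cells measured by MTS viability assay. Values reported as EC50.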
A further test concerns mouse 3T3 fibroblasts. The test can be described thus: Cytotoxicity, MTS viability assay. Conditions: Mus musculus, NIH3T3; cytotoxicity. The procedure, abridged: as §3
A further test has as its system A. viscosis. The test can be described thus: Commensal bacteria MIC, broth microdilution. As for the experimental part: (§4) Bacterial MICs were determined using a broth microdilution assay under standard
as §2

The subject of another test is S. salivarius. The test can be described thus: Commensal bacteria MIC, broth microdilution. Conditions: Streptococcus salivarius. As for the experimental part: as §4, §2
Setting [4] is: 48 h, 2-day hyphal biofilm cultures, read-out: Anti-C. albicans GDH2346 Hyphal (IC50).
The mark [5] stands for this setting: hyphal state, read-out: IC50 Candida, Hyphal.

As for `NCCSc1cc(SCCN)c(C(F)(F)F)cc1NC(=O)c1cc(C(=O)Nc2cc(C(F)(F)F)c(SCCN)cc2SCCN)ncn1` [Compound 100], the EC50 amounted to 0.78 µg/mL (≈ 1.03 µM) in the test with S. aureus 27660; 1.56 µg/mL (≈ 2.07 µM) in the test on K. pneumoniae 13883; 0.78 µg/mL (≈ 1.03 µM) with E. faecalis 29212; 1.56 µg/mL (≈ 2.07 µM) in the test on E. coli 25922; 3.13 µg/mL (≈ 4.15 µM) in the test on P. aeruginosa 10145. In addition, the IC50 in test [1] is over 1000 µM; in test [2] (setting [4]), 4.9 µg/mL (≈ 6.49 µM); in test [2] (setting [5]) it was 4.9 µg/mL (≈ 6.49 µM); in [3], over 1000 µM; with mouse 3T3 fibroblasts it was 439 µM. Further, the MIC in the test on A. viscosis and against S. salivarius was over 64 µg/mL throughout.
As for `NCCCOc1cc(OCCCN)cc(-c2ccc3c(c2)c2cc(-c4cc(OCCCN)cc(OCCCN)c4)ccc2n3CCCN)c1` [Compound 135], the EC50 in the test on S. aureus 27660 is 12.5 µg/mL (≈ 18.7 µM); in the test on K. pneumoniae 13883, 12.5 µg/mL (≈ 18.7 µM); in the test on E. faecalis 29212, 12.5 µg/mL (≈ 18.7 µM); with E. coli 25922 it was 6.25 µg/mL (≈ 9.34 µM); in the test on P. aeruginosa 10145 it was over 50 µg/mL. Moreover, the IC50 in test [1] turned out to be 766 µM; in test [2] (setting [4]), 2.68 µg/mL (≈ 4.01 µM); in [2] (setting [5]) it was 2.68 µg/mL (≈ 4.01 µM); in test [3], 885 µM; with mouse 3T3 fibroblasts, 436 µM. Besides, the MIC against A. viscosis and in the test with S. salivarius was over 64 µg/mL throughout.
Take `N=C(N)N1CCN(c2ccc(-c3cc(-c4ccc(N5CCN(C(=N)N)CC5)cc4)ncn3)cc2)CC1` [Compound 136]: the EC50 in the test on S. aureus 27660 is 0.39 µg/mL (≈ 0.805 µM); in the test on K. pneumoniae 13883 it was 50 µg/mL (≈ 103 µM); in the test on E. faecalis 29212, 0.098 µg/mL (≈ 0.202 µM); in the test on E. coli 25922, over 50 µg/mL; in the test on P. aeruginosa 10145 it was 50 µg/mL (≈ 103 µM). Also, the IC50 in test [1] turned out to be 466 µM; in test [2] (setting [4]), 0.71 µg/mL (≈ 1.47 µM); in test [2] (setting [5]), 0.71 µg/mL (≈ 1.47 µM); in test [3], 453 µM; with mouse 3T3 fibroblasts, 311 µM. The results for the MIC against A. viscosis and against S. salivarius were 4 µg/mL (≈ 8.25 µM) and 16 µg/mL (≈ 33 µM), respectively.
Regarding `NCCCOc1cc(-c2cn(-c3cc(OCCCN)cc(OCCCN)c3)nn2)cc(-c2cn(-c3cc(OCCCN)cc(OCCCN)c3)nn2)c1` [Compound 137], the EC50 is 25 µg/mL (≈ 34.3 µM) in the test with S. aureus 27660; over 50 µg/mL with K. pneumoniae 13883; 25 µg/mL (≈ 34.3 µM) in the test on E. faecalis 29212; 50 µg/mL (≈ 68.5 µM) with E. coli 25922; 50 µg/mL (≈ 68.5 µM) in the test on P. aeruginosa 10145. The IC50 is 42 µM in test [1], 2.29 µg/mL (≈ 3.14 µM) in test [2] (setting [5]), 182 µM in test [3] and 83 µM in the test with mouse 3T3 fibroblasts. The MIC against A. viscosis and against S. salivarius was over 64 µg/mL throughout.
